Assay results taken from ChEMBL document CHEMBL1131211, “Cyclopropane-derived peptidomimetics. Design, synthesis, evaluation, and structure of novel HIV-1 protease inhibitors” (J Med Chem, 1998).

Each compound was assayed against Human immunodeficiency virus type 1 protease (Human immunodeficiency virus 1, UniProt Q72874) (assay: Inhibitory activity was measured against wild-type HIV-1 protease).
Work on `C[C@H]1[C@@H](C(=O)NCc2ccccc2)[C@@H]1C(=O)N[C@@H](Cc1ccccc1)[C@@H](O)[C@H](O)[C@H](Cc1ccccc1)NC(=O)[C@@H]1[C@@H](C)[C@H]1C(=O)NCc1ccccc1` yielded a Ki of 0.16 nM.
In the case of `CC(C)[C@H](NC(=O)N(C)Cc1ccccn1)C(=O)N[C@@H](Cc1ccccc1)[C@@H](O)[C@H](O)[C@H](Cc1ccccc1)NC(=O)[C@@H](NC(=O)N(C)Cc1ccccn1)C(C)C`, the Ki is reported as 0.11 nM.
Work on `CN(Cc1ccccn1)C(=O)[C@H]1[C@H](C(=O)N[C@@H](Cc2ccccc2)[C@@H](O)[C@H](O)[C@H](Cc2ccccc2)NC(=O)[C@H]2[C@H](C(=O)N(C)Cc3ccccn3)C2(C)C)C1(C)C` yielded a Ki of 80 nM.
`C[C@@H]1[C@@H](C(=O)NCc2ccccc2)[C@@H]1C(=O)N[C@@H](Cc1ccccc1)[C@@H](O)[C@H](O)[C@H](Cc1ccccc1)NC(=O)[C@@H]1[C@H](C)[C@H]1C(=O)NCc1ccccc1` was tested, and the Ki was 0.47 nM.
`CC1(C)[C@@H](C(=O)NCc2ccccc2)[C@@H]1C(=O)N[C@@H](Cc1ccccc1)[C@@H](O)[C@H](O)[C@H](Cc1ccccc1)NC(=O)[C@H]1[C@H](C(=O)NCc2ccccc2)C1(C)C` gave a Ki of 0.31 nM.
